Data reported in ChEMBL document CHEMBL1240343, “Transition state analogs of 5'-methylthioadenosine nucleosidase disrupt quorum sensing” (Nat Chem Biol, 2009).
Active and inactive are the calls of the source. The rule behind the calls is not given here.

Tests used:
[1] = biological target: T1, 5'-methylthioadenosine/S-adenosylhomocysteine nucleosidase (Vibrio cholerae serotype O1 (strain ATCC 39315 / El Tor Inaba N16961), UniProt Q9KPI8); test: Binding affinity to His-tagged Vibrio cholerae recombinant MTAN expressed in Escherichia coli […]
T1 sequence (Q9KPI8 whole entry): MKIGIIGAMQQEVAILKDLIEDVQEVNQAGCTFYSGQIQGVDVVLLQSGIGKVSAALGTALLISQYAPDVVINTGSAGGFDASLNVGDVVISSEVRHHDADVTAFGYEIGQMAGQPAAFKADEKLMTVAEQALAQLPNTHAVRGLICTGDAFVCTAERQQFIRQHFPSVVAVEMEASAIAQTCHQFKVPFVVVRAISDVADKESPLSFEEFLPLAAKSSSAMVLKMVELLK

[2] = Inhibition of Escherichia coli MTAN
[3] = tested on: Vibrio cholerae; test: Antimicrobial activity against Vibrio cholerae N16961 assessed as effect on cell growth up to 1 uM; type: functional, organism-based
[4] = tested on: Escherichia coli; test: Antibacterial activity Escherichia coli O157:H7 EDL933 assessed as induction of growth deffect at 0.5 uM after 16 hrs; type: functional, organism-based
[5] = tested on: Escherichia coli; test: Antibacterial activity MTAN-deficient Escherichia coli assessed as induction of growth deffect at 0.5 uM after 16 hrs; type: functional, organism-based
[6] = biological target: 5'-methylthioadenosine/S-adenosylhomocysteine nucleosidase (Escherichia coli O157:H7) (UniProt P0AF14); test: (§1) Inhibition of Escherichia coli O157:H7 EDL933 MTAN-mediated autoinducer-2 production assessed as inhibition of light induction in quorum-sensing Vibrio harveyi BB120 by luminescence induction assay
[7] = biological target: 5'-methylthioadenosine/S-adenosylhomocysteine nucleosidase (Escherichia coli O157:H7, UniProt P0AF14); test: as §1
[8] = biological target: T2, 5'-methylthioadenosine/S-adenosylhomocysteine nucleosidase (Vibrio cholerae serotype O1 (strain ATCC 39315 / El Tor Inaba N16961)) (UniProt Q9KPI8); details: 1 uM
T2 sequence (whole entry): T1 sequence (Q9KPI8 whole entry)

[9] = biological target: T2, 5'-methylthioadenosine/S-adenosylhomocysteine nucleosidase (Vibrio cholerae serotype O1 (strain ATCC 39315 / El Tor Inaba N16961)); details: 1 uM; remark: listed apart in the source
[10] = tested on: Escherichia coli; test: Ratio of Km to Ki for Escherichia coli MTAN
[11] = tested on: Vibrio harveyi; test: Inhibition of autoinducer-2 production in Vibrio harveyi BB120 assessed as inhibition of light induction by luminescence induction assay; type: functional; details: Vibrio harveyi ATCC BAA-1116
[12] = tested on: Vibrio cholerae; test: Antibacterial activity against Vibrio cholerae N16961 at 1 uM; type: functional, organism-based
[13] = tested on: Vibrio cholerae; test: Antibacterial activity against Vibrio cholerae N16961 at 2.5 uM; type: functional, organism-based
[14] = tested on: Escherichia coli; test: Antibacterial activity Escherichia coli O157:H7 EDL933 at 1 uM; type: functional, organism-based
[15] = tested on: Escherichia coli; test: Antibacterial activity Escherichia coli O157:H7 EDL933 at 2.5 uM; type: functional, organism-based
[16] = tested on: Escherichia coli; test: Inhibition of Escherichia coli O157:H7 EDL933 biofilm production at 1 uM after 24 hrs; type: functional; details: O157:H7 EDL933, 24 h
[17] = tested on: Vibrio cholerae; test: Inhibition of Vibrio cholerae N16961 biofilm production at 1 uM after 24 hrs; type: functional; details: N16961, 24 h
[18] = tested on: Escherichia coli; test: Antibacterial activity against Escherichia coli O157:H7 EDL933 at 1 uM after 24 hrs; type: functional, organism-based
[19] = tested on: Vibrio cholerae; test: Antibacterial activity against Vibrio cholerae N16961 at 1 uM after 24 hrs; type: functional, organism-based

Sequence of 5'-methylthioadenosine/S-adenosylhomocysteine nucleosidase (Escherichia coli O157:H7) (P0AF14 whole entry, looked up): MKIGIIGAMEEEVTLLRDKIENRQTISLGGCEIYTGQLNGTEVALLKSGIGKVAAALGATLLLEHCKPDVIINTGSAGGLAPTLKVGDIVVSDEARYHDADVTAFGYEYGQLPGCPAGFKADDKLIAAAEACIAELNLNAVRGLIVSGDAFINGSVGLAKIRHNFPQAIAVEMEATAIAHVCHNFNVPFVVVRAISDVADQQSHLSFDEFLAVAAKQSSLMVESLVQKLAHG
Sequence of 5'-methylthioadenosine/S-adenosylhomocysteine nucleosidase (Escherichia coli O157:H7, UniProt P0AF14) (P0AF14 whole entry): as the sequence (P0AF14 whole entry, looked up) above

**Q.** For `Nc1ncnc2c([C@@H]3N[C@H](CSCc4ccccc4)[C@@H](O)[C@H]3O)c[nH]c12`, which Kd [1] is on record?
**A.** 2.1 nM

**Q.** With `CSC[C@H]1CN(Cc2c[nH]c3c(N)ncnc23)C[C@@H]1O` as the compound, how does the Kd [2] read?
**A.** 0.2 pM

**Q.** And the Activity [3]?
**A.** inactive

**Q.** What about the Activity [4] of the same compound?
**A.** inactive

**Q.** And the Activity [5]?
**A.** inactive

**Q.** And the inhibition [6]?
**A.** Dose-dependent effect

**Q.** What about the IC50 [7] of the same compound?
**A.** 600 nM

**Q.** And the inhibition [8]?
**A.** Active

**Q.** And the inhibition [9]?
**A.** Active

**Q.** What does the source list for `Nc1ncnc2c(CN3C[C@H](CSc4ccc(Cl)cc4)[C@@H](O)C3)c[nH]c12`?
**A.** Kd [2]: 0.047 pM; Ratio [10]: 1e+08; Activity [3]: inactive; Kd [1]: 0.33 nM

**Q.** Which Kd [1] does the source give for `Nc1ncnc2c(CN3C[C@H](CSCc4ccccc4)[C@@H](O)C3)c[nH]c12` here?
**A.** 0.064 nM

**Q.** Which Activity [3] does the source give for `CCSC[C@H]1CN(Cc2c[nH]c3c(N)ncnc23)C[C@@H]1O` here?
**A.** inactive

**Q.** What does the source list for `CCCCSC[C@H]1CN(Cc2c[nH]c3c(N)ncnc23)C[C@@H]1O`?
**A.** Kd [2]: 0.3 pM; Activity [3]: inactive; Activity [4]: inactive; Activity [5]: inactive; inhibition [6]: Dose-dependent effect; inhibition [11]: inactive; Activity [12]: inactive; Activity [13]: inactive; Activity [14]: inactive; Activity [15]: inactive; inhibition at 1 µM [16]: 18%; inhibition at 1 µM [17]: 71%; Activity [18]: inactive; Activity [19]: inactive

**Q.** Which Kd [1] does the source give for `CCSC[C@H]1N[C@@H](c2c[nH]c3c(N)ncnc23)[C@H](O)[C@@H]1O` here?
**A.** 1.6 nM

**Q.** With `CSC[C@H]1N[C@@H](c2c[nH]c3c(N)ncnc23)[C@H](O)[C@@H]1O` as the compound, how does the Kd [1] read?
**A.** 10 nM

**Q.** Which Kd [1] does the source give for `Nc1ncnc2c([C@@H]3N[C@H](CSc4ccc(Cl)cc4)[C@@H](O)[C@H]3O)c[nH]c12` here?
**A.** 2.2 nM
